The supplement of paper PMC10307832

How the values were obtained:
Experiment in all cases: relative viability (nuclei count vs DMSO), 5 days (fraction); higher = more cells survive
[1] = compound: CC1=C(CC(=O)O)c2cc(F)ccc2/C1=C\c1ccc([S+](C)[O-])cc1 [Sulindac] + CC(=O)Nc1cccc(-n2c(=O)n(C3CC3)c(=O)c3c(Nc4ccc(I)cc4F)n(C)c(=O)c(C)c32)c1 [Trametinib] (partner 0.02 µM)
Summary of the method: (§1)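 Values are medians from duplicate plates. Each reflects relative viability, defined as the nuclei count of treated wells over that of vehicle wells. Lung cancer cell lines in 1536-well plates were pin-tool dosed one day after seeding with one drug alone or with a fixed anchor-drug dose plus five library-drug doses (not always all listed) in √10 steps, then fixed, stained and imaged at 4× after 5 days.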

[2] = compound: CC1=C(CC(=O)O)c2cc(F)ccc2/C1=C\c1ccc([S+](C)[O-])cc1 [Sulindac] + COc1cc2c(Oc3ccc(NC(=O)C4(C(=O)Nc5ccc(F)cc5)CC4)cc3F)ccnc2cc1OCCCN1CCOCC1 [Foretinib] (partner 0.25 µM)
Summary of the method: as §1

[3] = compound: CC1=C(CC(=O)O)c2cc(F)ccc2/C1=C\c1ccc([S+](C)[O-])cc1 [Sulindac] + COc1cccc2cc(-c3nc([C@H]4CC[C@H](C(=O)O)CC4)n4ncnc(N)c34)[nH]c12 [OSI-027] (partner 0.5 µM)
Summary of the method: as §1

[4] = compound: O=c1[nH]cc(F)c(=O)[nH]1 [5-Fluorouracil] + C[C@]1(O)C[C@@H](c2nc(-c3ccc4ccc(-c5ccccc5)nc4c3)c3c(N)nccn32)C1 [Linsitinib] (partner 1 µM)
Summary of the method: as §1

| Cell Line | relative viability ([1]; first compound 0.08 µM) | relative viability ([1]; first compound 0.253 µM) | relative viability ([1]; first compound 0.8 µM) | relative viability ([1]; first compound 2.53 µM) | relative viability ([1]; first compound 8 µM) | relative viability ([2]; first compound 0.08 µM) | relative viability ([2]; first compound 0.253 µM) | relative viability ([2]; first compound 0.8 µM) | relative viability ([2]; first compound 2.53 µM) | relative viability ([2]; first compound 8 µM) | relative viability ([3]; first compound 0.08 µM) | relative viability ([3]; first compound 0.253 µM) | relative viability ([3]; first compound 0.8 µM) | relative viability ([3]; first compound 2.53 µM) | relative viability ([3]; first compound 8 µM) | relative viability ([4]; first compound 0.2 µM) | relative viability ([4]; first compound 0.6325 µM) | relative viability ([4]; first compound 2 µM) | relative viability ([4]; first compound 0.02 µM) |
| --- | --- | --- | --- | --- | --- | --- | --- | --- | --- | --- | --- | --- | --- | --- | --- | --- | --- | --- | --- |
| NCI-H1437 | 0.644 | 0.568 | 0.461 | 0.515 | 0.525 | 1.33 | 1.23 | 1 | 1.28 | 1.42 | 1.01 | 1 | 0.767 | 0.811 | 0.96 | 0.26 | 0.169 | 0.119 |  |
| NCI-H1651 | 0.797 | 0.844 | 0.733 | 0.801 | 0.845 | 0.899 | 0.848 |  | 0.764 | 0.88 | 0.783 | 0.698 |  | 0.801 | 0.85 | 0.859 | 0.602 | 0.468 | 0.973 |
| NCI-H1666 | 0.895 | 0.889 | 0.775 | 0.924 | 0.93 | 1.01 | 1.02 | 0.908 | 0.975 | 1.13 | 0.857 | 0.882 | 0.753 | 0.826 | 0.915 | 0.412 | 0.401 | 0.321 | 0.777 |
| NCI-H1734 | 0.673 | 0.725 | 0.575 | 0.693 | 0.832 | 0.864 | 0.956 |  | 1.03 | 0.958 | 0.663 | 0.636 |  | 0.583 | 0.711 | 1.05 | 0.706 | 0.546 | 0.762 |
| NCI-H1755 | 0.886 | 0.751 | 0.775 | 0.812 | 0.89 | 0.976 | 0.974 | 0.848 | 0.916 | 1.03 | 0.776 | 0.64 | 0.661 | 0.733 | 0.763 | 0.796 | 0.322 | 0.254 | 0.96 |
| NCI-H1793 | 0.352 | 0.497 |  | 0.497 | 0.481 | 0.759 | 0.808 | 0.54 | 0.748 | 0.736 | 0.218 | 0.359 | 0.236 | 0.243 | 0.258 | 0.92 | 0.815 | 0.496 | 0.691 |
| NCI-H1915 | 0.303 | 0.307 | 0.246 | 0.302 | 0.303 | 1.26 | 1.2 |  | 1.11 | 1.15 | 0.764 | 0.688 |  | 0.678 | 0.625 | 1.1 | 1.03 | 0.803 | 1.06 |
| NCI-H1944 | 0.476 | 0.418 | 0.328 | 0.421 | 0.487 | 0.962 | 0.874 | 0.822 | 0.974 | 1.03 | 0.424 | 0.43 | 0.353 | 0.421 | 0.412 | 1.19 | 0.497 | 0.27 | 1.13 |
